Test system: Mycobacterium tuberculosis H37Rv growth inhibition, no glycerol
Test: Mycobacterium tuberculosis H37Rv growth inhibition, no glycerol, confirmatory dose response (AID 449764);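 note: growth read after 7 days of incubation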
Conditions: for IC90: measured here: IC90 growth inhibition

SMILES | IC50 [µM] | IC90 [µM]
Cc1nc(NC(=O)c2ccccc2)sc1C1(C)CC(c2ccc(OC(F)(F)F)cc2)=NO1 (stereo not given) | 29.7 | 60.4
CCCCS(=O)(=O)/C=C\C=C/S(=O)(=O)CCCC | 2.24 | 2.92
COc1ccc(C(CCN2CCCCC2)c2c(OC)cc(OC)c3c(-c4ccccc4)cc(=O)oc23)cc1 (stereo not given) | 18.9 | 26.8
CCOc1cc2c3c(c1)C1(C(=O)N3C(C)(C)CC2C)C(C#N)=C(N)N2C(=C1C#N)Nc1ccccc12 (stereo not given) | 37.8 | > 100
CCOc1ccc(-c2cc(C)[n+](CCc3ccc(OC)c(OC)c3)c(-c3ccc(OCC)cc3)c2)cc1 | 1.66 | 2.52
Cc1ccc(/C=C2\C(=O)Nc3ccccc32)o1 | 4.9 | 6.56
CC(C)CCC[C@@H](C)[C@H]1CC[C@H]2[C@@H]3C(=O)C=C4C[C@@H](O)CC[C@]4(C)[C@H]3CC[C@]12C | 38.5 | 62.9
O=C(CCl)NN=C(c1ccccc1)c1ccccc1 | 1.32 | 2.09
COc1ccc2c(c1)CC/C(=C\C=C\c1ccccc1OC)C2=O | – | > 100
c1ccc(-c2n[nH]c(-c3ccccn3)n2)cc1 | 20.5 | 27.5
c1ccc(CN2CCN(CCCNc3ccc4nnc(-c5ccccc5)n4n3)CC2)cc1 | 22.1 | 25.3
O=C(OCC(=O)N1CCCCC1)c1cc2ccccc2cc1O | 2.95 | 3.42
CC(C)[C@H](CO)N(Cc1cccc(F)c1)c1nc(Nc2cccc(Cl)c2)c2ncn(C(C)C)c2n1 | 37.5 | 57.4
COC(=O)CSc1nnc([C@H](CC(C)C)NC(=O)OC(C)(C)C)o1 | 21.9 | 29.9
Cc1onc(-c2c(F)cccc2Cl)c1C(=O)O/N=C(\N)c1ccc([N+](=O)[O-])o1 | 14.4 | 27.6
CSc1nsc(/C=C/Nc2ccc(O)cc2C)c1C#N | 44.5 | 49.6
O=c1cc(CCl)nc(Cc2c(Cl)cccc2Cl)[nH]1 | 10.5 | > 100
CCOC(=O)c1cc(-c2csc(Nc3c(C)cc(C)cc3C)n2)on1 | 1.09 | 1.62
CCCCn1c(NCc2ccc3c(c2)OCO3)nc2ccccc21 | 23.5 | 25.9
O=C(CCSc1ccccn1)c1ccccc1 | 24.6 | 34.1
Cc1ccc(/C=C2\SC(N3CCCC3)=NC2=O)cc1 | 0.74 | 4.62
Cn1c(=O)c2c3c(sc2n2c(SCC(N)=O)nnc12)CC(C(C)(C)C)CC3 (stereo not given) | 24.7 | 41.7
O=C(Cc1ccc(Nc2nc3ccc(Br)cc3[nH]2)cc1)NCCc1cccs1 | 29.6 | 37

SMILES | IC50 [µM] | IC90 [µM]
Cc1ccc(CN2CC(C(=O)OCc3ccccc3Cl)CC2=O)cc1 (stereo not given) | 11.1 | 29.6
O=C(CN1CCC(n2nnc3cc(C(F)(F)F)ccc32)CC1)NCc1cccs1 | 37.2 | 47.9
CCOC(=O)c1nn(-c2ccc(C)cc2)c2nc(Nc3ccccc3)cc(=O)n12 | 12 | 13.6
COc1cccc(/C=N/Nc2nc(Nc3ccccc3)nc(-n3nc(C)cc3C)n2)c1O | < 0.2 | 0.25
O=C(CN1CCN(C(=O)COc2cccc(F)c2)CC1)Nc1ccc(Cl)c(C(F)(F)F)c1 | 50.4 | 57.4
CC(C)(C)c1ccc(Cn2nnc3c(=O)[nH]c(C4CCCN(C(=O)Cc5cccs5)C4)nc32)cc1 (stereo not given) | 36 | 46.6
CC1(C)c2[nH]c3ccccc3c2C[C@@H]2C(=O)N(Cc3ccccc3F)C(=O)N21 | 49.3 | > 50
O=C(CCl)Nc1sccc1C(=O)c1ccccc1 | 0.45 | 12.6
Cc1cccc(/C=c2\s/c(=C\C(=O)C(C)(C)C)[nH]c2=O)c1 | 12.4 | 31.7
CN1CCN(C2=Cc3ccc(Cl)cc3Sc3ccc(F)cc32)CC1 | 25.9 | 35.5
Cc1c2c(nc3ccccc13)CCC(C)C2 (stereo not given) | 21.7 | 37.1
Cc1cc(C)n(-c2nc(NCCN(C)C)c3c4c(sc3n2)CCCC4)n1 | 15.6 | 21.4
N#Cc1nccnc1S(=O)(=O)c1cccs1 | 59.3 | 73.3
C[n+]1c(-c2ccccc2)c2cc(N)ccc2c2ccc(N)cc21 | 16.4 | 20.9
COC(=O)CCCCC1SCC(NC(=O)c2ccccc2)C1=O (stereo not given) | 36.9 | 49.8
COc1cc(/C=N/NC(=O)COc2ccc(C)cc2)ccc1OC(=O)c1cccs1 | 25.5 | 30.1
Nc1c2c(nc3sc4c(c13)CCCCC4)CCCC2 | 3.12 | 8.41
CCCCOc1ccc(-c2nnn(C(C)C(=O)OCC)n2)cc1 (stereo not given) | 2.8 | 8.73
O=[N+]([O-])c1cc(-c2nc(-c3ccncc3)no2)cc([N+](=O)[O-])c1 | 10.4 | 20.5
COc1ccc(OCc2cccc(C(=O)Nn3cc([N+](=O)[O-])cn3)c2)cc1 | 26.2 | 42.9
C/C(CCc1ccc2c(c1)OCO2)=N\NC(=S)NC(C)C | 98.4 | > 100
Cc1cc(C)cc(NC(=O)CCc2ccc(C)o2)c1 | 92.9 | > 100
Clc1ccc2c(c1)C(c1ccccc1Cl)=NCc1nnc(N3CCN(CCOc4ccccc4)CC3)n1-2 | 34.8 | 46.1

SMILES | IC50 [µM] | IC90 [µM]
COC(=O)c1c(NC(=O)CC2SC(N)=NC2=O)sc2c1CCC(C(C)(C)C)C2 (stereo not given) | 40.2 | 64.4
O=C1c2cccc3c([N+](=O)[O-])ccc(c23)C(=O)N1O | 11.9 | 13.5
O=c1c2c(-c3ccccc3)csc2ncn1/N=C/c1ccc(O)c([N+](=O)[O-])c1 | 37.1 | 59
COc1ccc(C=C2C=C(C(C)(C)C)C(=O)C(C(C)(C)C)=C2)cc1OC | 4.94 | 7.13
O=C(Nc1nc2nc(-c3ccccc3)cc(=O)n2[nH]1)c1ccccc1 | 22.8 | > 100
CC(=O)C1=C(C)NC(SCC(=O)c2ccc(F)cc2)=C(C#N)C1c1ccco1 (stereo not given) | 32.7 | 49.8
O=C(OCC(=O)N1CCN(C(=O)c2ccco2)CC1)c1cc(-c2cccc(Br)c2)nc2ccccc12 | – | > 100
COc1ccc(C(CCNCc2ccc(OC(C)C)cc2)C(C)C)cc1 (stereo not given) | 23.8 | 32.4
NC(N)=N/N=C/c1ccc(N(c2ccccc2)c2ccccc2)cc1 | 9.86 | 12.8
CC(NCCCOc1cccc2ccccc12)c1ccccc1 (stereo not given) | 25.1 | 28
O=C(OCC#CCSc1nnc(-c2cccc3ccccc23)o1)c1cccs1 | 47.3 | > 100
CCCNC(=S)Nc1ccc(Nc2ccccc2)cc1 | 25 | 44.5
CN(c1ccccc1)c1ccc(/C=C/[N+](=O)[O-])cc1 | 15 | 28
CSc1cccc(CNC(=O)C2CCC(=O)N(Cc3cccc(C(F)(F)F)c3)C2)c1 (stereo not given) | 36.9 | 41.8
CCCOc1cccc(C(=O)NC(=S)Nc2ccc(N3CCN(C)CC3)cc2)c1 | – | > 100
Cc1ccc(-n2c(C)cc(/C=N/NC(N)=S)c2C)cc1 | 12.2 | 20
CCOc1ccc(Nc2cc(C)nc(-n3nc(C)cc3C)n2)cc1 | 2.27 | 4.89
CCOC(=O)c1c(-c2ccc(OC)cc2)csc1NC(=O)CNCc1ccco1 | 22.3 | 25.5
CC(C)=CCOc1ccc([C@@H]2COc3c(ccc4c3C=CC(C)(C)O4)C2)c(O)c1 | 25.4 | 43
Cc1cc(Nc2cc(Cl)nc(Sc3ccc(NC(=O)C4CC4)cc3)n2)n[nH]1 | 43.2 | 59.2
COC(=O)c1c(NC(=O)CCl)sc(C(=O)N2CCOCC2)c1C | 10 | 23.1
CCOC(=O)COc1cc([N+](=O)[O-])cc2cccnc12 | 30.5 | 46.4
CCn1c(NC(=O)c2nn(C)cc2Br)nc2ccccc21 | 9.5 | 16.8

SMILES | IC50 [µM] | IC90 [µM]
O=C1/C(=C/Nc2ccc3c(c2)OCO3)CCc2ccccc21 | 74.7 | > 100
COc1ccc(SN=C2C(C)=CC(=O)C=C2C)cc1 | 22.4 | 24.9
COc1cc(/C=C/c2cc[n+](C)cc2)ccc1OCC(=O)Nc1ccc(Cl)c(Cl)c1 | 25 | 28
CCOC(=O)c1ccc(NC(=S)NCCc2ccc(F)cc2)cc1 | 75.3 | > 100
Cc1ccc(C(=O)Sc2cccccc2=O)cc1 | 1.53 | 2.12
CC(C)Oc1ccc(C(=O)N/N=C/c2ccc(-c3ccc(S(=O)(=O)Nc4ncccn4)cc3)o2)cc1 | 55.8 | 89.7
O=C1CCCC2=C1C1c3ccccc3C(=O)N1c1ccc(C(=O)c3ccccc3)cc1N2 (stereo not given) | 22 | 24.4
O=C(CSc1cccc[n+]1[O-])c1cccs1 | 34.9 | 42.2
Fc1ccc2[nH]c3c(NCc4ccccc4)ncnc3c2c1 | 23.8 | 27
CCCC(/C=C/c1ccc(OC(C)=O)cc1)=C1/c2ccccc2C(=O)N1c1ccccc1 | 13.2 | 20.9
Cn1cc(/C=C2\C(=O)NC(=O)N(c3ccccc3)C2=O)c2ccccc21 | 42 | > 100
O=C1c2ccccc2S(=O)(=O)c2cc(C(=O)N3CCN(c4c(Cl)cncc4Cl)CC3)ccc21 | 34.8 | 52.2
Cc1cc(C(=O)CCl)c(C)n1CCc1ccc(Cl)cc1 | 3.95 | 9.41
CCOC(=O)c1sc(NC(=O)CN2C(=O)NC3(CC(C)CC(C)(C)C3)C2=O)cc1C (stereo not given) | 34.1 | 48.4
Cc1cc(C)nc(-n2nc(C)cc2NC(=O)CN2CCC(C)CC2)n1 | 16.4 | 35.3
COc1cc(C)c(/C=C/C(C)=C/C=C/C(C)=C/C(=O)O)c(C)c1C | 24.7 | 43.5
Clc1ccc(-c2[nH]ncc2N=Nc2ccccc2)cc1 | 63.1 | > 100
C1=C(c2c[nH]c3ccccc23)CCNC1 | 56.5 | 73.9
Cc1c(CN(C)C)c2c(n1Cc1ccccc1)C(=O)c1ccc(Br)cc1-2 | 24 | 27.8
CC1CCCN(Cc2c(O)ccc3c(=O)c(-c4nc5ccccc5s4)c(N)oc23)C1 (stereo not given) | 11.7 | 21
